Test results taken from ChEMBL document CHEMBL1201862, “PubChem BioAssay data set” (2004).
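Results reflect a 48-hour exposure of cells in 96-well plates to compound at five concentrations. GI50: concentration for 50% inhibition of growth.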 Activity calls are given as the source filed them. No stated cut-off is given here; in the data, active = GI50 up to about 1.1 µM and inactive = higher.

Experiments:
Test in all cases: growth of human tumour cells (NCI), 48 h
[1] = tested on: ACHN
[2] = tested on: HOP-92
[3] = tested on: SN12C
[4] = tested on: HT-29
[5] = tested on: RPMI-8226
[6] = tested on: CCRF-CEM
[7] = tested on: SF-295
[8] = tested on: OVCAR-3
[9] = tested on: IGROV-1
[10] = tested on: UACC-62
[11] = tested on: TK-10
[12] = tested on: SNB-19
[13] = tested on: NCI-H522
[14] = tested on: COLO 205
[15] = tested on: U-251
[16] = tested on: 786-0
[17] = tested on: OVCAR-8
[18] = tested on: HOP-62
[19] = tested on: SK-OV-3
[20] = tested on: MCF7

Row | SMILES | GI50 [1] | GI50 [2] | GI50 [3] | GI50 [4] | GI50 [5] | GI50 [6] | GI50 [7] | GI50 [8] | GI50 [9] | GI50 [10] | GI50 [11] | GI50 [12] | GI50 [13] | GI50 [14] | GI50 [15] | GI50 [16] | GI50 [17] | GI50 [18] | GI50 [19] | GI50 [20]
1 | COC(=O)c1ccc(S)c(S(=O)(=O)Nc2nc(N)n[nH]2)c1 | > 100 µM (inactive) | > 100 µM (inactive) | > 100 µM (inactive) | > 100 µM (inactive) | > 100 µM (inactive) | > 100 µM (inactive) | > 100 µM (inactive) | > 100 µM (inactive) | > 100 µM (inactive) | > 100 µM (inactive) | > 100 µM (inactive) | > 100 µM (inactive) | > 100 µM (inactive) | > 100 µM (inactive) | > 100 µM (inactive) | > 100 µM (inactive) | > 100 µM (inactive) |  |  | 
2 | C=C/C=C/NC(=O)OCc1ccccc1 | > 100 µM (inactive) | > 100 µM (inactive) | > 100 µM (inactive) | > 100 µM (inactive) | 82.8 µM (inactive) | > 100 µM (inactive) | > 100 µM (inactive) | > 100 µM (inactive) | > 100 µM (inactive) | > 100 µM (inactive) | > 100 µM (inactive) | > 100 µM (inactive) | > 100 µM (inactive) | > 100 µM (inactive) | > 100 µM (inactive) | > 100 µM (inactive) | > 100 µM (inactive) | > 100 µM (inactive) | > 100 µM (inactive) | 
3 | N=S(c1ccccc1[N+](=O)[O-])c1ccccc1[N+](=O)[O-] | 1.77 µM (inactive) | 1.98 µM (inactive) | 1.72 µM (inactive) |  | 2.08 µM (inactive) | 0.687 µM (active) |  | 1.5 µM (inactive) | 2.34 µM (inactive) | 4.34 µM (inactive) | 2.69 µM (inactive) | 8.07 µM (inactive) | 0.561 µM (active) | 1.95 µM (inactive) |  | 1.95 µM (inactive) | 3.65 µM (inactive) | 5.96 µM (inactive) | 6.27 µM (inactive) | 
4 | CCSc1ncnc2c(C3OC(CO)C(O)C3O)nsc12 (stereo not drawn) |  | > 100 µM (inactive) | > 100 µM (inactive) | > 100 µM (inactive) |  | > 100 µM (inactive) | > 100 µM (inactive) | > 100 µM (inactive) | > 100 µM (inactive) |  |  |  |  | > 100 µM (inactive) | > 100 µM (inactive) |  | > 100 µM (inactive) | > 100 µM (inactive) | > 100 µM (inactive) | > 100 µM (inactive)
5 | Cc1ccc2c(c1)C1(OC(=O)c3ccccc31)c1ccc(F)cc1O2 (stereo not drawn) |  | 16.1 µM (inactive) | > 100 µM (inactive) | 39.3 µM (inactive) | 24.2 µM (inactive) | 31.8 µM (inactive) |  | 55.2 µM (inactive) | > 100 µM (inactive) | 70.6 µM (inactive) | > 100 µM (inactive) |  | 23.9 µM (inactive) | 38.7 µM (inactive) |  | 77.6 µM (inactive) | > 100 µM (inactive) | > 100 µM (inactive) | > 100 µM (inactive) | 
6 | CC(=O)OC(C)(C)C[N+](=O)[O-] | > 100 µM (inactive) | > 100 µM (inactive) | > 100 µM (inactive) | > 100 µM (inactive) | > 100 µM (inactive) | > 100 µM (inactive) | > 100 µM (inactive) | > 100 µM (inactive) | > 100 µM (inactive) |  | > 100 µM (inactive) | > 100 µM (inactive) | 63.4 µM (inactive) | > 100 µM (inactive) | > 100 µM (inactive) | > 100 µM (inactive) | > 100 µM (inactive) | > 100 µM (inactive) | > 100 µM (inactive) | 
7 | [O-][n+]1ccccc1S [PYRITHIONE ZINC] | 3.21 µM (inactive) | 3.24 µM (inactive) | 1.87 µM (inactive) | 0.176 µM (active) | 0.1 µM (active) | 0.0331 µM (active) | 4.46 µM (inactive) | 0.304 µM (active) | 1.14 µM (inactive) | 0.604 µM (active) | 10.1 µM (inactive) | 5.2 µM (inactive) | 0.107 µM (active) | 0.625 µM (active) | 1.34 µM (inactive) | 0.343 µM (active) | 3.01 µM (inactive) | 4.34 µM (inactive) | 17.4 µM (inactive) | 
8 | CC(=O)NC(C)(C)C1CC=C(C)CC1 (stereo not drawn) | > 100 µM (inactive) |  | > 100 µM (inactive) | > 100 µM (inactive) | > 100 µM (inactive) | > 100 µM (inactive) | > 100 µM (inactive) | > 100 µM (inactive) | > 100 µM (inactive) | > 100 µM (inactive) | > 100 µM (inactive) | > 100 µM (inactive) |  | > 100 µM (inactive) | > 100 µM (inactive) | > 100 µM (inactive) | > 100 µM (inactive) | > 100 µM (inactive) | > 100 µM (inactive) | > 100 µM (inactive)
9 | CN(CCO)c1nc(=O)c2c([nH]1)CCC2 | > 100 µM (inactive) | > 100 µM (inactive) | > 100 µM (inactive) | > 100 µM (inactive) | > 100 µM (inactive) | > 100 µM (inactive) | > 100 µM (inactive) | > 100 µM (inactive) | > 100 µM (inactive) | > 100 µM (inactive) | > 100 µM (inactive) | > 100 µM (inactive) | > 100 µM (inactive) | > 100 µM (inactive) | > 100 µM (inactive) | > 100 µM (inactive) | > 100 µM (inactive) | > 100 µM (inactive) | > 100 µM (inactive) | 
10 | CCCc1c(C(=O)OCC)[nH]c(-c2ccc(-c3[nH]c(C(=O)OCC)c(CCC)c3C(=O)OCC)o2)c1C(=O)OCC | > 100 µM (inactive) | > 100 µM (inactive) | > 100 µM (inactive) | > 100 µM (inactive) | > 100 µM (inactive) | > 100 µM (inactive) | > 100 µM (inactive) | > 100 µM (inactive) | > 100 µM (inactive) | > 100 µM (inactive) | > 100 µM (inactive) | > 100 µM (inactive) | > 100 µM (inactive) | > 100 µM (inactive) | > 100 µM (inactive) | > 100 µM (inactive) | > 100 µM (inactive) |  | > 100 µM (inactive) | 
11 | CCOC(=O)C1=C(Nc2ccccc2)OC/C1=N\NC(=O)Cc1ccccc1 |  | > 50 µM (inactive) | > 50 µM (inactive) | > 50 µM (inactive) | > 50 µM (inactive) | > 50 µM (inactive) | > 50 µM (inactive) | > 50 µM (inactive) | > 50 µM (inactive) | > 50 µM (inactive) | > 50 µM (inactive) | > 50 µM (inactive) | > 50 µM (inactive) | > 50 µM (inactive) | > 50 µM (inactive) | > 50 µM (inactive) | > 50 µM (inactive) | > 50 µM (inactive) | > 50 µM (inactive) | 
12 | Cc1cc(C(C)(C)C)cc(Cc2cc(C(C)(C)C)cc(Cc3cc(C(C)(C)C)cc(C)c3O)c2O)c1O |  | 2.94 µM (inactive) | 7.28 µM (inactive) | 11.7 µM (inactive) | 2.47 µM (inactive) | 3.04 µM (inactive) | 16 µM (inactive) | 4.75 µM (inactive) | 11.3 µM (inactive) | 6.84 µM (inactive) | 16.3 µM (inactive) | 13 µM (inactive) | 3.71 µM (inactive) | 16.2 µM (inactive) | 4.07 µM (inactive) | 5.64 µM (inactive) | 5.5 µM (inactive) | 15.4 µM (inactive) | 14.1 µM (inactive) | 
13 | CN1C(=O)NC2(O)c3ccccc3C(=O)C12O (stereo not drawn) |  | > 100 µM (inactive) |  | > 100 µM (inactive) | > 100 µM (inactive) | > 100 µM (inactive) | > 100 µM (inactive) | > 100 µM (inactive) | > 100 µM (inactive) | > 100 µM (inactive) | > 100 µM (inactive) | > 100 µM (inactive) | > 100 µM (inactive) | > 100 µM (inactive) | > 100 µM (inactive) | > 100 µM (inactive) | > 100 µM (inactive) |  | > 100 µM (inactive) | 
14 | CC1(C)c2ccccc2C(C)(C)C(C(=O)Nc2ccccc2)C1C(=O)O (stereo not drawn) | > 100 µM (inactive) | > 100 µM (inactive) | > 100 µM (inactive) | > 100 µM (inactive) | > 100 µM (inactive) | > 100 µM (inactive) | > 100 µM (inactive) | > 100 µM (inactive) |  | > 100 µM (inactive) | > 100 µM (inactive) | > 100 µM (inactive) | > 100 µM (inactive) | > 100 µM (inactive) | > 100 µM (inactive) | > 100 µM (inactive) | > 100 µM (inactive) | > 100 µM (inactive) | > 100 µM (inactive) | 
15 | NC(=O)OCC1=C(COC(N)=O)C(=O)c2c(O)ccc(O)c2C1=O | > 100 µM (inactive) | > 100 µM (inactive) | > 100 µM (inactive) | > 100 µM (inactive) | > 100 µM (inactive) | 44.7 µM (inactive) | > 100 µM (inactive) | > 100 µM (inactive) | > 100 µM (inactive) | 27.3 µM (inactive) | > 100 µM (inactive) |  | > 100 µM (inactive) | 58.7 µM (inactive) | > 100 µM (inactive) |  | > 100 µM (inactive) | > 100 µM (inactive) | > 100 µM (inactive) | 
16 | CC(C)(C)C1=NO[C@H]2[C@@H](NC(=O)c3ccccc3)CC[C@@H]12 | > 100 µM (inactive) | 98.2 µM (inactive) | > 100 µM (inactive) | > 100 µM (inactive) | > 100 µM (inactive) | > 100 µM (inactive) | > 100 µM (inactive) | > 100 µM (inactive) | > 100 µM (inactive) | > 100 µM (inactive) | > 100 µM (inactive) | > 100 µM (inactive) | > 100 µM (inactive) | > 100 µM (inactive) | > 100 µM (inactive) | > 100 µM (inactive) | > 100 µM (inactive) | > 100 µM (inactive) | > 100 µM (inactive) | 
